Structures can show the parent of a compound that is named as a salt.
Columns and labels:
Assay type in all cases: physicochemical
[1] = Residual solvent level (ethyl acetate) by gas chromatography; conditions: for Residual solvent level: anhydrate before, X-hydrate after conditioning
Description: The residual solvent level described above can be determined by a known method such as gas chromatography. Gas chromatography is described in detail at B98-B114 of the Practical Guide of the 14th revision of Pharmacopoeia of Japan (published by Hirokawa Publishing Co., 2001) or the like. The measurement error by gas chromatography is normally within about ±1%.
The following examples further illustrate the present invention without, however, limiting the invention thereto. In the following examples, NMR spectra were measured by using a nuclear magnetic resonance spectrometer JNM-ECP500SS (made by JEOL) and only characteristic peaks were shown. Powder X-ray diffraction spectra were measured by using a powder X-ray diffractometer RINT-1100 (made by Rigaku). Residual solvent levels were measured by using a gas chromatograph GC-17A (made by Shimadzu) within an error of about ±1%. The staring material Dihydroxy compound described below (compound 1) can be prepared according to the process described in JPA 1997-100241 or modifications thereof.
Crystal form D anhydrate prepared according to Example 2 and Crystal form D X-hydrate prepared by conditioning said anhydrate according to Example 3 (1) or (2) using an air-circulating dryer (made by Nippon Kansoki), a vibro-fluidized bed dryer VUA-10DJ (made by Chuo Kakohki) or a fluidized bed granulator New Marumerizer NQ-160 (made by Fuji Paudal) were assayed for their residual solvent levels (ethyl acetate) by gas chromatography. Before and after conditioning, the crystal form was confirmed by powder X-ray diffraction spectra to have been transferred from Crystal form D anhydrate into Crystal form D X-hydrate.

[2] = Accelerated testing with oxygen at 40° C. for 2 weeks and 1 month, degradants by HPLC; conditions: for Percent Degradants: Oxygen replacement, X-hydrate 75% RH
Experimental: (§1) The resulting samples were tested for purity by HPLC, and the peak area of each sample was measured by automatic analysis to determine the product percentage by the area percentage method according to the equation below. The HPLC column used was YMC ODS AM303 (4.6×250 mm) with a mobile phase consisting of a solution of acetonitrile: water=1:1 containing PICB-8 (Low UV) reagent, and a UV spectrometer (260 nm) and a PDA (200-400 nm) were used as detectors on 25 μL of each sample solution prepared by dissolving about 20 mg of each sample in a solution of acetonitrile:water=1:1 to a volume of exactly 25 mL.
(§2) Degradants percentage (%)=(degradants peak area×100)/(total of peak areas excluding peaks derived from fumaric acid and control solution)
In the same manner as described in (1) above, Crystal form D was stored and dried under reduced pressure in a desiccator containing silica gel. After drying under reduced pressure, the air in the desiccator was replaced with high-purity oxygen conditioned at a relative humidity of 0% RH to perform accelerated testing of Crystal form D anhydrate at 40° C. for 2 weeks and for 1 month. Similarly, Crystal form D was stored in a desiccator conditioned at a relative humidity of about 75% RH by an aqueous saturated sodium chloride solution and the air in the desiccator was replaced with high-purity oxygen conditioned at a relative humidity of 75% RH to perform accelerated testing of Crystal form D X-hydrate at 40° C. for 2 weeks and for 1 month. The resulting samples were analyzed as described in (1) above. Before and after accelerated testing, the crystal form was confirmed to be kept Crystal form D anhydrate or Crystal form D X-hydrate under each conditions by powder X-ray diffraction spectra.

[3] = Accelerated testing (stability) of Crystal form D anhydrate and X-hydrate at 40° C. and 60° C. for 1 month, degradants by HPLC; conditions: for Percent Degradants: X-hydrate at about 75% RH
Experimental: Three lots of Crystal form D anhydrate prepared according to the procedure described in Example 2 were stored and dried under reduced pressure in a desiccator containing silica gel. After drying under reduced pressure, the desiccator was charged with air conditioned at a relative humidity of 0% RH to perform accelerated testing of Crystal form D anhydrate at 40° C. for 1 month and at 60° C. for 1 month. Similarly, Crystal form D was stored in a desiccator conditioned at a relative humidity of about 75% RH by an aqueous saturated sodium chloride solution to perform accelerated testing of Crystal form D X-hydrate at 40° C. for 1 month and at 60° C. for 1 month. Before and after accelerated testing, the crystal form was confirmed to be Crystal form D anhydrate or Crystal form D X-hydrate by powder X-ray diffraction spectra.
as §1, §2

With `CC[C@H]1OC(=O)[C@H](C)[C@@H](O[C@H]2C[C@@](C)(OC)[C@@H](O)[C@H](C)O2)[C@H](C)[C@@H](O[C@@H]2O[C@H](C)C[C@H](N(C)C(C)C)[C@H]2O)[C@@]2(C)CC(C)=C(O2)[C@H](C)C(=O)[C@]1(C)OC` [Crystal form D X-hydrate, [2S, 4R, 5R, 8R, 9S, 10S, 11R, 12R]-9-[(2,6-dideoxy-3-C-methyl-3-O-methyl-α-L-ribo-hexopyranosyl)oxy]-5-ethyl-4-methoxy-2,4,8,10,12,14-hexamethyl-11-[[3,4,6-trideoxy-3-(isopropylmethylamino)-β-D-xylo-hexopyranosyl]oxy]-6,15-dioxabicyclo[10.2.1]pentadec-14 (1)-ene-3,7-dione (E)-2-butenedioic acid salt (2:1)] the Residual solvent level ([1]; Lot A, Air-circulating dryer, 20-21° C., 58-63% RH (air) 2 hrs, listed as X-hydrate) was 636 ppm, the Residual solvent level ([1]; Lot B, Vibro-fluidized bed dryer, 22-28° C., 75 ± 15% RH (nitrogen gas) 4 hrs, listed as X-hydrate) was 446 ppm and the Residual solvent level ([1]; Lot C, Fluidized bed granulator, 24-29° C., 75 ± 10% RH (air) 4 hrs, listed as X-hydrate) was 424 ppm. For the same compound, the Residual solvent level ([1]; Lot D, Vibro-fluidized bed dryer, 19-26° C., 70-71% RH (nitrogen gas) 4 hrs, listed as X-hydrate) was 424 ppm, the Residual solvent level ([1]; Lot E, Air-circulating dryer, 19-28° C., 41-71% RH (air) 72 hrs, listed as X-hydrate) was 251 ppm and the “residual solvent level compared between the crystal forms” value ([1]; all the lots) was “lower”. For the same compound, the “Percent Degradants” value ([2]; 1 month, Lot 1, anhydrate 0% RH, listed as X-hydrate) was 0.66%, the “Percent Degradants” value ([2]; 1 month, Lot 2, anhydrate 0% RH, listed as X-hydrate) was 0.72% and the “Percent Degradants” value ([2]; 1 month, Lot 3, anhydrate 0% RH, listed as X-hydrate) was 0.93%. The “Percent Degradants” value ([2]; 2 weeks, Lot 1, anhydrate 0% RH, listed as X-hydrate) was 0.17%, the “Percent Degradants” value ([2]; 2 weeks, Lot 2, anhydrate 0% RH, listed as X-hydrate) was 0.05% and the “Percent Degradants” value ([2]; 2 weeks, Lot 3, anhydrate 0% RH, listed as X-hydrate) was 0.18%. For the same compound, the “stability compared between the crystal forms” value ([2]; oxygen replacement, 2 weeks and 1 month) was “more stable than Crystal form D anhydrate”, the “stability compared between the crystal forms” value ([3]; 40° C. and 60° C., all the lots) was “more stable than Crystal form D anhydrate” and the “Percent Degradants” value ([3]; 40° C., Lot 1, anhydrate at 0% RH, listed as X-hydrate) was 0.17%. For the same compound, the “Percent Degradants” value ([3]; 40° C., Lot 2, anhydrate at 0% RH, listed as X-hydrate) was 0.42%, the “Percent Degradants” value ([3]; 40° C., Lot 3, anhydrate at 0% RH, listed as X-hydrate) was 0.22% and the “Percent Degradants” value ([3]; 60° C., Lot 1, anhydrate at 0% RH, listed as X-hydrate) was 0.90%. For the same compound, the “Percent Degradants” value ([3]; 60° C., Lot 2, anhydrate at 0% RH, listed as X-hydrate) was 0.63% and the “Percent Degradants” value ([3]; 60° C., Lot 3, anhydrate at 0% RH, listed as X-hydrate) was 1.53%.
Compound `CC[C@H]1OC(=O)[C@H](C)[C@@H](O[C@H]2C[C@@](C)(OC)[C@@H](O)[C@H](C)O2)[C@H](C)[C@@H](O[C@@H]2O[C@H](C)C[C@H](N(C)C(C)C)[C@H]2O)[C@@]2(C)CC(C)=C(O2)[C@H](C)C(=O)[C@]1(C)OC` [Crystal form D anhydrate, [2S, 4R, 5R, 8R, 9S, 10S, 11R, 12R]-9-[(2,6-dideoxy-3-C-methyl-3-O-methyl-α-L-ribo-hexopyranosyl)oxy]-5-ethyl-4-methoxy-2,4,8,10,12,14-hexamethyl-11-[[3,4,6-trideoxy-3-(isopropylmethylamino)-β-D-xylo-hexopyranosyl]oxy]-6,15-dioxabicyclo[10.2.1]pentadec-14(1)-ene-3,7-dione (E)-2-butenedioic acid salt (2:1)] has a Residual solvent level ([1]; Lot A, Air-circulating dryer, 20-21° C., 58-63% RH (air) 2 hrs, listed as Anhydrate) of 697 ppm, a Residual solvent level ([1]; Lot B, Vibro-fluidized bed dryer, 22-28° C., 75 ± 15% RH (nitrogen gas) 4 hrs, listed as Anhydrate) of 616 ppm and a Residual solvent level ([1]; Lot C, Fluidized bed granulator, 24-29° C., 75 ± 10% RH (air) 4 hrs, listed as Anhydrate) of 750 ppm. For the same compound, the Residual solvent level ([1]; Lot D, Vibro-fluidized bed dryer, 19-26° C., 70-71% RH (nitrogen gas) 4 hrs, listed as Anhydrate) was 875 ppm, the Residual solvent level ([1]; Lot E, Air-circulating dryer, 19-28° C., 41-71% RH (air) 72 hrs, listed as Anhydrate) was 663 ppm and the “Percent Degradants” value ([2]; 1 month, Lot 1, anhydrate 0% RH, listed as Anhydrate) was 3.12%. The “Percent Degradants” value ([2]; 1 month, Lot 2, anhydrate 0% RH, listed as Anhydrate) was 3.39%, the “Percent Degradants” value ([2]; 1 month, Lot 3, anhydrate 0% RH, listed as Anhydrate) was 3.96% and the “Percent Degradants” value ([2]; 2 weeks, Lot 1, anhydrate 0% RH, listed as Anhydrate) was 1.01%. The “Percent Degradants” value ([2]; 2 weeks, Lot 2, anhydrate 0% RH, listed as Anhydrate) was 1.00%, the “Percent Degradants” value ([2]; 2 weeks, Lot 3, anhydrate 0% RH, listed as Anhydrate) was 1.32% and the “Percent Degradants” value ([3]; 40° C., Lot 1, anhydrate at 0% RH, listed as Anhydrate) was 1.01%. The “Percent Degradants” value ([3]; 40° C., Lot 2, anhydrate at 0% RH, listed as Anhydrate) was 1.38%, the “Percent Degradants” value ([3]; 40° C., Lot 3, anhydrate at 0% RH, listed as Anhydrate) was 1.41% and the “Percent Degradants” value ([3]; 60° C., Lot 1, anhydrate at 0% RH, listed as Anhydrate) was 2.66%. The “Percent Degradants” value ([3]; 60° C., Lot 2, anhydrate at 0% RH, listed as Anhydrate) was 2.52% and the “Percent Degradants” value ([3]; 60° C., Lot 3, anhydrate at 0% RH, listed as Anhydrate) was 3.05%.

Reference: patent publication US20050176938A1, “Anhydrate/hydrate of an erythromycin derivative and processes for preparing said anhydrate/hydrate” (Chugai Seiyaku Kabushiki Kaisha, priority 2002, published 2005)
